Measurements reported in patent US20260028365A1 (BIOGEN MA INC., priority 2022, published 2026).

Assays:
Tyk2 = Tyk2 (Homo sapiens (Human), UniProt P29597); assay: pSTAT4 Cell Assay (MSD, NK92 cells); type: cell-based; details: MSD
JH2 domain of human Tyk2 = JH2 domain of human Tyk2 (Homo sapiens (Human), UniProt P29597); assay: JH2 Biochemical Assay (TR-FRET probe displacement); type: binding; details: JH2 domain of human Tyk2, TR-FRET probe displacement
Sequence of JH2 domain of human Tyk2 (P29597 575-876): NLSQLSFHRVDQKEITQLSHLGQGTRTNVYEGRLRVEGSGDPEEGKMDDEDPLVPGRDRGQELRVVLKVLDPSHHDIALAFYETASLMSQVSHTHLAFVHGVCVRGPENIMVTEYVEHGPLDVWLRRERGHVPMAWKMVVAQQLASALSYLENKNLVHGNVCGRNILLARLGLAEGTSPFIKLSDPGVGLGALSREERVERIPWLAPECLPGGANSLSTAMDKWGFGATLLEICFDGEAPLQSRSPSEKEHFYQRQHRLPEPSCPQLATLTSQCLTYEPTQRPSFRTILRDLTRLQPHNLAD

Sequence of Tyk2 (P29597 whole entry, the tested form may be a part): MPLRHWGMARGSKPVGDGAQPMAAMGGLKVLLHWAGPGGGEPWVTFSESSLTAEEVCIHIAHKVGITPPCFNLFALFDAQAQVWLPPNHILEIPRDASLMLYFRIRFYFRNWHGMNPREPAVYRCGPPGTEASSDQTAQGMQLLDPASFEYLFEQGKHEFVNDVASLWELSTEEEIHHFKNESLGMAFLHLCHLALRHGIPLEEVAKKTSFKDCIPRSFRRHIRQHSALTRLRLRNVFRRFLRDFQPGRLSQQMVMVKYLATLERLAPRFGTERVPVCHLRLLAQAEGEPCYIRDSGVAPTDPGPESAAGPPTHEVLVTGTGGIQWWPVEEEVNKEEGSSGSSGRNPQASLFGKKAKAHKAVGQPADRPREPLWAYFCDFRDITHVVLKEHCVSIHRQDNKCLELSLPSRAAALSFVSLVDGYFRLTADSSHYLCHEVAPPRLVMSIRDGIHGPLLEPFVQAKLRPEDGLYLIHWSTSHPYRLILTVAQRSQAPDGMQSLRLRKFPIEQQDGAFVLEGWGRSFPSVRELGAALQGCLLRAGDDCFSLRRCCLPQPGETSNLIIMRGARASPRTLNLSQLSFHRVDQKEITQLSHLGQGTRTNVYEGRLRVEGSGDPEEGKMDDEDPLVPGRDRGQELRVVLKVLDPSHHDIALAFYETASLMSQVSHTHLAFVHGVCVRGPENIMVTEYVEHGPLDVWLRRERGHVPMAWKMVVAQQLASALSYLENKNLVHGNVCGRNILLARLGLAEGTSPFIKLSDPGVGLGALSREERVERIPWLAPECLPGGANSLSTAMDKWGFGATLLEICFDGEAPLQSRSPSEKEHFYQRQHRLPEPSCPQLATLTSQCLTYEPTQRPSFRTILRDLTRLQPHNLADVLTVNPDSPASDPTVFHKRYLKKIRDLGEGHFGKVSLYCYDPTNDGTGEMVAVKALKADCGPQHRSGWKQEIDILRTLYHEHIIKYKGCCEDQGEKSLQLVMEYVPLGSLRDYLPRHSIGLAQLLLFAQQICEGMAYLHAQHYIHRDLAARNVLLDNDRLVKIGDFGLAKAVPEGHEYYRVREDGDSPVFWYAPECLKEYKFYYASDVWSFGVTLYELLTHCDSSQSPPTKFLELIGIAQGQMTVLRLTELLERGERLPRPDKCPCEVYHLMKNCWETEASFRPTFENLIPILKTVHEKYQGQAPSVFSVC

Structure (SMILES) | IC50 (Tyk2) [nM] | IC50 (JH2 domain of human Tyk2) [nM]
CCOc1cnc(NC(C)=O)cc1Nc1cc(OC2CCC2)nc(C(C)(F)F)n1 [Example 462, N-(4-((6-cyclobutoxy-2-(1,1-difluoroethyl)pyrimidin-4-yl)amino)-5-ethoxypyridin-2-yl)acetamide] | ≤ 10 | ≤ 10
CCOc1cnc(NC(C)=O)cc1Nc1cc(OC2CC(C#N)C2)nc(C(C)(F)F)n1 (centres unmarked) [Example 463, N-(4-((6-(3-cyanocyclobutoxy)-2-(1,1-difluoroethyl)pyrimidin-4-yl)amino)-5-ethoxypyridin-2-yl)acetamide] | ≤ 10 | ≤ 10
CCOc1cnc(NC(C)=O)cc1Nc1cc(OC2CC(C)C2)nc(C(C)(F)F)n1 (centres unmarked) [Example 464, N-(4-((2-(1,1-difluoroethyl)-6-(3-methylcyclobutoxy)pyrimidin-4-yl)amino)-5-ethoxypyridin-2-yl)acetamide] | ≤ 10 | ≤ 10
CC(=O)Nc1cc(Nc2cc(C)nc(C(C)(F)F)n2)c(OCC2CC(F)(F)C2)cn1 [Example 465, N-(5-((3,3-difluorocyclobutyl)methoxy)-4-((2-(1,1-difluoroethyl)-6-methylpyrimidin-4-yl)amino)pyridin-2-yl)acetamide] | 10 to 100 | ≤ 10
CC(=O)Nc1cc(Nc2cc(C)nc(C(C)(F)F)n2)c(OCc2cccc(F)c2)cn1 [Example 466, N-(4-((2-(1,1-difluoroethyl)-6-methylpyrimidin-4-yl)amino)-5-((3-fluorobenzyl)oxy)pyridin-2-yl)acetamide] | 10 to 100 | ≤ 10
CC(=O)Nc1cc(Nc2cc(C)nc(C(C)(F)F)n2)c(OCc2ccc(F)c(F)c2)cn1 [Example 467, N-(5-((3,4-difluorobenzyl)oxy)-4-((2-(1,1-difluoroethyl)-6-methylpyrimidin-4-yl)amino)pyridin-2-yl)acetamide] | 10 to 100 | ≤ 10
CC(=O)Nc1cc(Nc2cc(C)nc(C(C)(F)F)n2)c(OCc2cccnc2C)cn1 [Example 469, N-(4-((2-(1,1-difluoroethyl)-6-methylpyrimidin-4-yl)amino)-5-((2-methylpyridin-3-yl)methoxy)pyridin-2-yl)acetamide] | 100 to 1000 | ≤ 10
CC(=O)Nc1cc(Nc2cc(C)nc(C(C)(F)F)n2)c(OCc2cnccc2C)cn1 [Example 470, N-(4-((2-(1,1-difluoroethyl)-6-methylpyrimidin-4-yl)amino)-5-((4-methylpyridin-3-yl)methoxy)pyridin-2-yl)acetamide] | 100 to 1000 | ≤ 10
CC(=O)Nc1cc(Nc2cc(C)nc(C(C)(F)F)n2)c(OCc2ncccc2C)cn1 [Example 471, N-(4-((2-(1,1-difluoroethyl)-6-methylpyrimidin-4-yl)amino)-5-((3-methylpyridin-2-yl)methoxy)pyridin-2-yl)acetamide] | 100 to 1000 | 10 to 100
COc1cccnc1COc1cnc(NC(C)=O)cc1Nc1cc(C)nc(C(C)(F)F)n1 [Example 472, N-(4-((2-(1,1-difluoroethyl)-6-methylpyrimidin-4-yl)amino)-5-((3-methoxypyridin-2-yl)methoxy)pyridin-2-yl)acetamide] | 100 to 1000 | 10 to 100
CC(=O)Nc1cc(Nc2cc(C)nc(C(C)(F)F)n2)c(OCc2ccncc2)cn1 [Example 473, N-(4-((2-(1,1-difluoroethyl)-6-methylpyrimidin-4-yl)amino)-5-((pyridin-4-yl)methoxy)pyridin-2-yl)acetamide] | 10 to 100 | ≤ 10
CC(=O)Nc1cc(Nc2cc(C)nc(C(C)(F)F)n2)c(OCc2cncc(F)c2)cn1 [Example 474, N-(4-((2-(1,1-difluoroethyl)-6-methylpyrimidin-4-yl)amino)-5-((5-fluoropyridin-3-yl)methoxy)pyridin-2-yl)acetamide] | 10 to 100 | ≤ 10
CC(=O)Nc1cc(Nc2cc(C)nc(C(C)(F)F)n2)c(OCc2ccn(C)n2)cn1 [Example 475, N-(4-((2-(1,1-difluoroethyl)-6-methylpyrimidin-4-yl)amino)-5-((1-methyl-1H-pyrazol-3-yl)methoxy)pyridin-2-yl)acetamide] | 10 to 100 | ≤ 10
CC(=O)Nc1cc(Nc2cc(C)nc(C(C)(F)F)n2)c(OCCc2ccccn2)cn1 [Example 476, N-(4-((2-(1,1-difluoroethyl)-6-methylpyrimidin-4-yl)amino)-5-(2-(pyridin-2-yl)ethoxy)pyridin-2-yl)acetamide] | 10 to 100 | ≤ 10
CC(=O)Nc1cc(Nc2cc(C)nc(C(C)(F)F)n2)c(OC2CCOC2)cn1 (centres unmarked) [Example 477, N-(4-((2-(1,1-difluoroethyl)-6-methylpyrimidin-4-yl)amino)-5-((tetrahydrofuran-3-yl)oxy)pyridin-2-yl)acetamide] | 10 to 100 | ≤ 10
CC(=O)Nc1cc(Nc2cc(C)nc(C(C)(F)F)n2)c(OC2CCN(C)C2)cn1 (centres unmarked) [Example 478, N-(4-((2-(1,1-difluoroethyl)-6-methylpyrimidin-4-yl)amino)-5-((1-methylpyrrolidin-3-yl)oxy)pyridin-2-yl)acetamide] | 100 to 1000 | ≤ 10

Structure (SMILES) | IC50 (Tyk2) [nM] | IC50 (JH2 domain of human Tyk2) [nM]
CC(=O)Nc1cc(Nc2cc(C)nc(C(C)(F)F)n2)c(OCC2CCCN2C)cn1 (centres unmarked) [Example 479, N-(4-((2-(1,1-difluoroethyl)-6-methylpyrimidin-4-yl)amino)-5-((1-methylpyrrolidin-2-yl)methoxy)pyridin-2-yl)acetamide] | 100 to 1000 | ≤ 10
CC(=O)Nc1cc(Nc2cc(C)nc(C(C)(F)F)n2)c(OCC2CCCO2)cn1 (centres unmarked) [Example 481, N-(4-((2-(1,1-difluoroethyl)-6-methylpyrimidin-4-yl)amino)-5-((tetrahydrofuran-2-yl)methoxy)pyridin-2-yl)acetamide] | 10 to 100 | ≤ 10
CC(=O)Nc1cc(Nc2cc(C)nc(C(C)(F)F)n2)c(OCCOC(C)C)cn1 [Example 482, N-(4-((2-(1,1-difluoroethyl)-6-methylpyrimidin-4-yl)amino)-5-(2-isopropoxyethoxy)pyridin-2-yl)acetamide] | 10 to 100 | ≤ 10
CC(=O)Nc1cc(Nc2cc(C)nc(C(C)(F)F)n2)c(OCC2(F)COC2)cn1 [Example 483, N-(4-((2-(1,1-difluoroethyl)-6-methylpyrimidin-4-yl)amino)-5-((3-fluorooxetan-3-yl)methoxy)pyridin-2-yl)acetamide] | 10 to 100 | ≤ 10
CC(=O)Nc1cc(Nc2cc(C)nc(C(C)(F)F)n2)c(OCc2ccc3c(c2)OCO3)cn1 [Example 484, N-(5-(benzo[d][1,3]dioxol-5-ylmethoxy)-4-((2-(1,1-difluoroethyl)-6-methylpyrimidin-4-yl)amino)pyridin-2-yl)acetamide] | 10 to 100 | ≤ 10
CCOc1cnc(NC(C)=O)cc1Nc1cc(NC)nc(C(C)(F)F)n1 [Example 485, N-(4-((2-(1,1-difluoroethyl)-6-(methylamino)pyrimidin-4-yl)amino)-5-ethoxypyridin-2-yl)acetamide] | 10 to 100 | ≤ 10
CC(=O)Nc1cc(Nc2cc(OC3CC3)nc(C(C)(F)F)n2)c(OCc2ccccc2)cn1 [Example 487, N-(5-(benzyloxy)-4-((6-cyclopropoxy-2-(1,1-difluoroethyl)pyrimidin-4-yl)amino)pyridin-2-yl)acetamide] | ≤ 10 | ≤ 10
CCOc1cnc(NC(C)=O)cc1Nc1ccc(-c2ccn(C)n2)c(OC)n1 [Example 491, N-(5-ethoxy-4-((6-methoxy-5-(1-methyl-1H-pyrazol-3-yl)pyridin-2-yl)amino)pyridin-2-yl)acetamide] | ≥ 1000 | 10 to 100
COC(C)(C)COc1cnc(NC(C)=O)cc1Nc1cc(C)nc(C(C)(F)F)n1 [Example 492, N-(4-((2-(1,1-difluoroethyl)-6-methylpyrimidin-4-yl)amino)-5-(2-methoxy-2-methylpropoxy)pyridin-2-yl)acetamide] | 10 to 100 | ≤ 10
COC1(COc2cnc(NC(C)=O)cc2Nc2cc(C)nc(C(C)(F)F)n2)CCC1 [Example 493, N-(4-((2-(1,1-difluoroethyl)-6-methylpyrimidin-4-yl)amino)-5-((1-methoxycyclobutyl)methoxy)pyridin-2-yl)acetamide] | 10 to 100 | ≤ 10
CC(=O)Nc1cc(Nc2cc(C)nc(C(C)(F)F)n2)c(OC[C@@H]2CCN(C3CC3)C2)cn1 [Example 494, (R)-N-(5-((1-cyclopropylpyrrolidin-3-yl)methoxy)-4-((2-(1,1-difluoroethyl)-6-methylpyrimidin-4-yl)amino)pyridin-2-yl)acetamide] | 10 to 100 | ≤ 10
CC(=O)Nc1cc(Nc2cc(C)nc(C(C)(F)F)n2)c(OCc2ccon2)cn1 [Example 495, N-(4-((2-(1,1-difluoroethyl)-6-methylpyrimidin-4-yl)amino)-5-(isoxazol-3-ylmethoxy)pyridin-2-yl)acetamide] | 10 to 100 | ≤ 10
CC(=O)Nc1cc(Nc2cc(C)nc(C(C)(F)F)n2)c(OCc2nccn2C)cn1 [Example 496, N-(4-((2-(1,1-difluoroethyl)-6-methylpyrimidin-4-yl)amino)-5-((1-methyl-1H-imidazol-2-yl)methoxy)pyridin-2-yl)acetamide] | ≥ 1000 | 10 to 100
CC(=O)Nc1cc(Nc2cc(C)nc(C(C)(F)F)n2)c(OCc2cc(C)on2)cn1 [Example 497, N-(4-((2-(1,1-difluoroethyl)-6-methylpyrimidin-4-yl)amino)-5-((5-methylisoxazol-3-yl)methoxy)pyridin-2-yl)acetamide] | 10 to 100 | ≤ 10
CC(=O)Nc1cc(Nc2cc(C)nc(C(C)(F)F)n2)c(OCc2noc(C)n2)cn1 [Example 498, N-(4-((2-(1,1-difluoroethyl)-6-methylpyrimidin-4-yl)amino)-5-((5-methyl-1,2,4-oxadiazol-3-yl)methoxy)pyridin-2-yl)acetamide] | 100 to 1000 | ≤ 10
